Experimental data as given in ChEMBL document CHEMBL1149440, “Indol-1-yl acetic acids as peroxisome proliferator-activated receptor agonists: design, synthesis, structural biology, and molecular docking studies” (J Med Chem, 2006).

How the values were obtained:
[1] = target: T1, Peroxisome proliferator-activated receptor delta (Homo sapiens, UniProt Q03181)
T1 sequence (Q03181 whole entry): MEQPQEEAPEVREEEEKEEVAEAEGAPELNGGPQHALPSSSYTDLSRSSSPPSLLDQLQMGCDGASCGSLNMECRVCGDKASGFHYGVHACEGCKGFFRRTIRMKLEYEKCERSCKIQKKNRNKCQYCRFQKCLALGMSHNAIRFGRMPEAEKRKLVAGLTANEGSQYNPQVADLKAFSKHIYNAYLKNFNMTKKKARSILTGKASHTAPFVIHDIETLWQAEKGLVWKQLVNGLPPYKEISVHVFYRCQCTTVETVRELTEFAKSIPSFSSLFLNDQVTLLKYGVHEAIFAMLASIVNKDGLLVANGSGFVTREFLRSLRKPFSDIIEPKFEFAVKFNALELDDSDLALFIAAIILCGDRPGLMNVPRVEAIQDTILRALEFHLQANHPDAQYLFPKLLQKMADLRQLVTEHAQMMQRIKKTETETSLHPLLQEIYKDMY

[2] = target: T1, Peroxisome proliferator-activated receptor delta; assay type: functional, cell-based, Huh-7
[3] = target: T2, Peroxisome proliferator-activated receptor alpha (Homo sapiens, UniProt Q07869)
T2 sequence (Q07869 whole entry): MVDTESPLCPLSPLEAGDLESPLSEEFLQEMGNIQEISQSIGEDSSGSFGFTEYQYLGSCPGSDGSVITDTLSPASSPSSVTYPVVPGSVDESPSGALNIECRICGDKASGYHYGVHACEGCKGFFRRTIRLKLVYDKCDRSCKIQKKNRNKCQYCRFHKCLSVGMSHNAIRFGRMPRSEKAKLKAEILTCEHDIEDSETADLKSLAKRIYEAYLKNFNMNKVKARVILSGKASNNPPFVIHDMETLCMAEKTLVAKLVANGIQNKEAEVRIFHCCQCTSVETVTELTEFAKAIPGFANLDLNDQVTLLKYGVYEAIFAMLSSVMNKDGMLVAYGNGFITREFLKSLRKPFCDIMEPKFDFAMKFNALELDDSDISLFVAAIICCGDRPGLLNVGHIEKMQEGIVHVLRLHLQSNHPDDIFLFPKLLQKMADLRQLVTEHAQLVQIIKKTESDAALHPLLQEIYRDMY

[4] = target: T2, Peroxisome proliferator-activated receptor alpha; assay type: functional, cell-based, Huh-7

IC50 [1] | EC50 [2] | IC50 [3] | EC50 [4] | SMILES
2400 nM | 4900 nM | 4490 nM | 2480 nM | CCCc1c(OCCCOc2ccc3ccn(CC(=O)O)c3c2)ccc2cc(C(=O)c3ccccc3)ccc12
5380 nM | > 10000 nM | 578 nM | 19 nM | CCCc1c(OCCCOc2cccc3c2ccn3CC(=O)O)ccc2cc(C(=O)c3ccccc3)ccc12
4430 nM | 5600 nM | 484 nM | 270 nM | O=C(O)Cn1ccc2cc(OCCCOc3ccc4cc(C(=O)c5ccccc5)ccc4c3)ccc21
– | – | 496 nM | – | CCCc1c(OCCCOc2ccc3c(ccn3CC(=O)O)c2)ccc2c(C(F)(F)F)noc12
– | – | 470 nM | 50 nM | CCCc1cc(C(=O)c2ccc(F)cc2)ccc1OCCCOc1ccc2c(ccn2CC(=O)O)c1
2570 nM | > 10000 nM | 4490 nM | > 10000 nM | O=C(O)Cn1ccc2ccc(OCCCOc3ccc4cc(C(=O)c5ccccc5)ccc4c3)cc21
3260 nM | 4000 nM | 414 nM | 773 nM | CCCc1cc(C(=O)c2ccc(F)cc2)ccc1OCCCOc1cccc2c1ccn2CC(=O)O
> 10000 nM | > 10000 nM | 1020 nM | > 10000 nM | O=C(O)Cn1ccc2c(OCCCOc3ccc(C(=O)c4ccc(F)cc4)cc3)cccc21
> 10000 nM | > 10000 nM | 1080 nM | > 10000 nM | O=C(O)Cn1ccc2c(OCCCOc3ccc4cc(C(=O)c5ccccc5)ccc4c3)cccc21
– | – | 113 nM | 8 nM | CCCc1c(OCCCOc2ccc3c(ccn3CC(=O)O)c2)ccc2cc(C(=O)c3ccccc3)ccc12
7620 nM | 5290 nM | 1050 nM | > 10000 nM | CCCc1cc(C(=O)c2ccc(F)cc2)ccc1OCCCOc1ccc2ccn(CC(=O)O)c2c1
> 10000 nM | > 10000 nM | > 10000 nM | > 10000 nM | O=C(O)Cn1ccc2cc(OCCCOc3ccc(C(=O)c4ccc(F)cc4)cc3)ccc21
3150 nM | 4350 nM | 116 nM | 765 nM | O=C(O)Cn1ccc2ccc(OCCCOc3ccc(C(=O)c4ccc(F)cc4)cc3)cc21
